15 compounds from PubChem BioAssay (NCI) can be followed below.

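Assay format: 96-well plates, 48-hour exposure. TGI: concentration producing complete growth inhibition.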

Test systems include A498 renal; A549 NSCLC; HOP-92 NSCLC; K-562 leukemia; M14 melanoma; OVCAR-3 ovarian; RPMI-8226 leukemia; SNB-19 CNS; SW-620 colon; T-47D breast.
Common to all, as to test: NCI tumour cell line growth inhibition, 48 h

As for `Cc1[nH]nc(C(F)(F)F)c1N=NN1CCOCC1`, the TGI with A498 renal amounted to 32.6 µM; in the experiment on A549 NSCLC it was 24.7 µM; with HOP-92 NSCLC, 8.32 µM; in the experiment on K-562 leukemia, 2.4 µM; with M14 melanoma, 32.8 µM; in the experiment with OVCAR-3 ovarian, 23 µM. Further, the TGI in the experiment on RPMI-8226 leukemia is 5.06 µM; in the experiment with SNB-19 CNS, 30.4 µM; with SW-620 colon, 5.64 µM; with T-47D breast, more than 42.8 µM.

As to `CC1CCC(=O)C(C(=O)CC2CC(=O)N(C)C(=O)C2)C1` (centres undefined), the TGI in the experiment on A498 renal, with A549 NSCLC, in the experiment with HOP-92 NSCLC, in the experiment on K-562 leukemia, in the experiment on M14 melanoma and in the experiment on OVCAR-3 ovarian was more than 100 µM in each case. For the same compound, the TGI with RPMI-8226 leukemia, in the experiment with SNB-19 CNS, with SW-620 colon and in the experiment with T-47D breast was more than 100 µM throughout.

For the compound `COc1ccc2cc(/C=N/NC(=O)Nc3ccccc3)ccc2c1`, the TGI in the experiment with A498 renal, in the experiment on HOP-92 NSCLC, in the experiment on K-562 leukemia, in the experiment with M14 melanoma, in the experiment on OVCAR-3 ovarian and in the experiment on RPMI-8226 leukemia was more than 100 µM each time. Besides, the TGI in the experiment on SNB-19 CNS, with SW-620 colon and with T-47D breast was more than 100 µM in each case.

As for `CC(O)C1(CNc2cc(Cl)nc(N)n2)CCC1` (centres undefined), the TGI in the experiment with A549 NSCLC, with HOP-92 NSCLC, in the experiment on K-562 leukemia, with OVCAR-3 ovarian, with RPMI-8226 leukemia and in the experiment on SNB-19 CNS was more than 100 µM throughout. Further, the TGI in the experiment with SW-620 colon and in the experiment with T-47D breast was more than 100 µM in each case.

With `O=[N+]([O-])/C(C(Cl)=C(Cl)Cl)=C(/Cl)Sc1ccccc1`, the TGI with A498 renal turned out to be 4.19 µM; in the experiment with A549 NSCLC it was 13.5 µM; with HOP-92 NSCLC, 3.85 µM; in the experiment with K-562 leukemia, 2.4 µM; with M14 melanoma it was 3.24 µM; in the experiment with OVCAR-3 ovarian, 3.61 µM. For the same compound, the TGI in the experiment with RPMI-8226 leukemia turned out to be 1.15 µM; with SNB-19 CNS, 36 µM; with SW-620 colon, 1.07 µM; in the experiment with T-47D breast it was 7.47 µM.

As to `CC#CCOC(=O)c1ccccc1OC(C)=O`, the TGI in the experiment with A498 renal, in the experiment with HOP-92 NSCLC, in the experiment with K-562 leukemia, in the experiment on M14 melanoma, in the experiment with RPMI-8226 leukemia and in the experiment with SNB-19 CNS was more than 100 µM in each case. Moreover, the TGI in the experiment on SW-620 colon and with T-47D breast was more than 100 µM each time.

For `CCOC(=O)CN1C(=O)c2ccc(NC(=O)C(=O)O)cc2S1(=O)=O`, the TGI in the experiment with A498 renal, in the experiment on A549 NSCLC, in the experiment on HOP-92 NSCLC, in the experiment with K-562 leukemia, with M14 melanoma and with RPMI-8226 leukemia was more than 100 µM in each case. The TGI with SNB-19 CNS, in the experiment with SW-620 colon and in the experiment on T-47D breast was more than 100 µM each time.

Regarding `Cn1c(=O)c2c(nc(Cc3ccccc3)n2CC(=O)O)n(C)c1=O`, the TGI with A498 renal, in the experiment with A549 NSCLC, with HOP-92 NSCLC, with M14 melanoma, in the experiment with OVCAR-3 ovarian and with SNB-19 CNS was more than 100 µM throughout. The TGI in the experiment on SW-620 colon and in the experiment on T-47D breast was more than 100 µM throughout.

As to `COc1ccc(P2(=S)OC(C)(C)C(C)(C)O2)cc1`, the TGI with A549 NSCLC, in the experiment on HOP-92 NSCLC, with K-562 leukemia, in the experiment on M14 melanoma, in the experiment on OVCAR-3 ovarian and in the experiment with SNB-19 CNS was more than 100 µM each time. Moreover, the TGI in the experiment with SW-620 colon and with T-47D breast was more than 100 µM throughout.

As for `O=Cc1[nH]c(=O)[nH]c(=O)c1C(=O)O`, the TGI in the experiment on A549 NSCLC, with HOP-92 NSCLC, with K-562 leukemia, in the experiment on M14 melanoma, in the experiment with OVCAR-3 ovarian and in the experiment on RPMI-8226 leukemia was more than 100 µM each time. Besides, the TGI with SNB-19 CNS, in the experiment with SW-620 colon and in the experiment on T-47D breast was more than 100 µM in each case.

Take `O=[N+]([O-])c1ccc2c(c1)C1=C(CO2)Cc2ccccc2O1`: the TGI in the experiment on A498 renal was more than 100 µM; with A549 NSCLC it was more than 100 µM; in the experiment on HOP-92 NSCLC, 81.5 µM; in the experiment with K-562 leukemia, more than 100 µM; in the experiment on M14 melanoma, 37.4 µM; with OVCAR-3 ovarian, 41.6 µM. For the same compound, the TGI is more than 100 µM with RPMI-8226 leukemia, 53.5 µM in the experiment with SW-620 colon and more than 100 µM in the experiment on T-47D breast.

For the compound `Cc1ccnc2[nH]c3ccccc3c(=O)c12`, the TGI was more than 100 µM in the experiment with A498 renal; more than 100 µM in the experiment with HOP-92 NSCLC; more than 100 µM in the experiment on K-562 leukemia; more than 100 µM in the experiment with M14 melanoma; 72.1 µM in the experiment with OVCAR-3 ovarian; 95.8 µM with RPMI-8226 leukemia. In addition, the TGI in the experiment on SNB-19 CNS, in the experiment on SW-620 colon and in the experiment with T-47D breast was more than 100 µM each time.

For `Oc1[nH]c2ccccc2c1N=NC(=S)Nc1cccc(Cl)c1`, the TGI with A498 renal is 24.7 µM; in the experiment on A549 NSCLC, 35.6 µM; in the experiment on HOP-92 NSCLC it was 70.3 µM; in the experiment with K-562 leukemia, 50 µM; in the experiment with M14 melanoma, 24.7 µM; in the experiment on OVCAR-3 ovarian, more than 100 µM. The TGI in the experiment on SNB-19 CNS was more than 100 µM; with SW-620 colon, 26.8 µM; in the experiment with T-47D breast, more than 100 µM.

As for `C/C=C(/C)C(=O)O[C@@H]1CCN2CC[C@H](COC(=O)/C(=C/C)CO)C12` (some centres undefined), the TGI is more than 100 µM in the experiment with A549 NSCLC; more than 100 µM with HOP-92 NSCLC; 18.3 µM in the experiment on K-562 leukemia; 36.3 µM in the experiment on M14 melanoma; more than 100 µM in the experiment on OVCAR-3 ovarian; more than 87.8 µM with RPMI-8226 leukemia. Moreover, the TGI in the experiment with SNB-19 CNS, in the experiment on SW-620 colon and in the experiment on T-47D breast was more than 100 µM throughout.

As for `CCCCNC(=S)Nc1nc(C(=O)NNC(=S)Nc2ccccc2)cs1`, the TGI was 68 µM with A498 renal; more than 100 µM in the experiment with A549 NSCLC; 38.6 µM in the experiment on HOP-92 NSCLC; more than 100 µM with M14 melanoma; more than 100 µM in the experiment with OVCAR-3 ovarian; more than 100 µM with RPMI-8226 leukemia. The TGI in the experiment on SNB-19 CNS, with SW-620 colon and in the experiment with T-47D breast was more than 100 µM in each case.
